# Reference: the supplement of paper PMC11061612
# Key:
# Experiment in all cases: combination Emax (second highest fraction inhibited in the dose matrix, 72 h); higher = more inhibition; extreme values may be limits of the assay
# [1] = tested on: OC-314 (Ovarian Carcinoma)
# Method in brief: (§1)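 After 24 hours at 37°C and 5% CO2 in 1536-well plates, cells in DMEM/F12 or RPMI plus 10% FBS received two-drug dose matrices for 72 hours. Viability came from CellTiter-Glo 2.0 luminescence and was scaled as inhibition, anchored at 0 by vehicle wells and at 1 by blank wells. Combination Emax is taken as the second-highest inhibition in the matrix, and Bliss excess as the observed combination effect less EA + EB − EA·EB, with EA and EB the single-agent effects.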
# [2] = tested on: 639-V (Bladder Carcinoma)
# Method in brief: as §1
# [3] = tested on: RPMI-6666 (Non-Cancerous)
# Method in brief: as §1
# [4] = tested on: RKO (Colorectal Carcinoma)
# Method in brief: as §1
# [5] = tested on: SK-OV-3 (Ovarian Carcinoma)
# Method in brief: as §1
# [6] = tested on: 8305C (Thyroid Gland Carcinoma)
# Method in brief: as §1
# [7] = tested on: HDLM-2 (Hodgkin's Lymphoma)
# Method in brief: as §1
# [8] = tested on: LB771-HNC (Head and Neck Carcinoma)
# Method in brief: as §1
# [9] = tested on: K5 (Thyroid Gland Carcinoma)
# Method in brief: as §1
# [10] = tested on: NCI-H747 (Colorectal Carcinoma)
# Method in brief: as §1
# [11] = tested on: OVCAR-8 (Ovarian Carcinoma)
# Method in brief: as §1
# [12] = tested on: SW1271 (Small Cell Lung Carcinoma)
# Method in brief: as §1
# [13] = tested on: NCI-H69 (Small Cell Lung Carcinoma)
# Method in brief: as §1
# [14] = tested on: MHH-PREB-1 (B-Cell Non-Hodgkin's Lymphoma)
# Method in brief: as §1
# [15] = tested on: SW626 (Colorectal Carcinoma)
# Method in brief: as §1
# [16] = tested on: NB14 (Neuroblastoma)
# Method in brief: as §1
# [17] = tested on: HARA (Squamous Cell Lung Carcinoma)
# Method in brief: as §1
# [18] = tested on: CAL-54 (Kidney Carcinoma)
# Method in brief: as §1
# [19] = tested on: LU-139 (Small Cell Lung Carcinoma)
# Method in brief: as §1
Structure (SMILES),combination Emax [1],combination Emax [2],combination Emax [3],combination Emax [4],combination Emax [5],combination Emax [6],combination Emax [7],combination Emax [8],combination Emax [9],combination Emax [10],combination Emax [11],combination Emax [12],combination Emax [13],combination Emax [14],combination Emax [15],combination Emax [16],combination Emax [17],combination Emax [18],combination Emax [19]
"NC1(C(=O)N[C@@H](CCO)c2ccc(Cl)cc2)CCN(c2ncnc3[nH]ccc23)CC1 [Capivasertib] + CC(=O)c1c(C)c2cnc(Nc3ccc(N4CCNCC4)cn3)nc2n(C2CCCC2)c1=O [Palbociclib] (first compound max 10 µM, 7x7, partner max 10 µM)",0.515,0.299,0.675,0.601,0.417,0.469,0.29,0.403,0.653,0.795,0.221,0.349,0.764,0.502,0.348,0.598,0.689,0.658,0.0872
"CS(=O)(=O)CCNCc1ccc(-c2ccc3ncnc(Nc4ccc(OCc5cccc(F)c5)c(Cl)c4)c3c2)o1 [Lapatinib] + C[C@@H](Oc1cc(-c2cnn(C3CCNCC3)c2)cnc1N)c1c(Cl)ccc(F)c1Cl [Crizotinib] (first compound max 10 µM, 7x7, partner max 10 µM)",0.881,0.853,0.843,0.942,0.776,0.94,0.552,0.854,0.984,0.926,0.79,0.529,0.845,0.96,0.626,0.979,0.95,0.916,0.936
"CS(=O)(=O)CCNCc1ccc(-c2ccc3ncnc(Nc4ccc(OCc5cccc(F)c5)c(Cl)c4)c3c2)o1 [Lapatinib] + Cn1cnc2c(F)c(Nc3ccc(Br)cc3Cl)c(C(=O)NOCCO)cc21 [Selumetinib] (first compound max 10 µM, 7x7, partner max 10 µM)",0.691,,0.462,0.763,0.347,0.542,0.372,,0.597,,,0.646,0.425,,,0.898,0.76,0.559,0.161
"NC1(C(=O)N[C@@H](CCO)c2ccc(Cl)cc2)CCN(c2ncnc3[nH]ccc23)CC1 [Capivasertib] + COc1nnc2ccc(N3CCC(c4ccc(OCCN5CCN(C)C(=O)[C@H]5C)cc4)CC3)nn12 [AZD5153] (first compound max 10 µM, 7x7, partner max 1 µM)",0.818,0.622,0.815,0.842,0.535,0.495,0.389,0.875,0.929,0.855,0.732,0.459,0.829,0.384,0.642,0.884,0.77,0.775,0.864
"Cn1cnc2c(F)c(Nc3ccc(Br)cc3Cl)c(C(=O)NOCCO)cc21 [Selumetinib] + C[C@@H]1COCCN1C2=NC(=NC(=C2)C3(CC3)[S@](=N)(=O)C)C4=C5C=CNC5=NC=C4 [AZD6738] (first compound max 10 µM, 7x7, partner max 10 µM)",0.753,0.464,0.804,0.945,0.32,0.534,0.243,0.503,0.689,0.776,0.739,0.552,0.261,0.675,0.681,0.97,0.835,0.616,0.053
"NC1(C(=O)N[C@@H](CCO)c2ccc(Cl)cc2)CCN(c2ncnc3[nH]ccc23)CC1 [Capivasertib] + CC(C)n1c(=O)n(C)c2cnc3cc(F)c(-c4ccc(OCCCN5CCCCC5)nc4)cc3c21 [AZD1390] (first compound max 10 µM, 7x7, partner max 0.3 µM)",0.421,0.252,0.715,0.524,0.383,0.436,0.298,0.395,0.405,0.523,0.255,0.371,0.514,0.21,0.273,0.381,0.514,0.466,0.0539
"NC1(C(=O)N[C@@H](CCO)c2ccc(Cl)cc2)CCN(c2ncnc3[nH]ccc23)CC1 [Capivasertib] + Cn1cnc2c(F)c(Nc3ccc(Br)cc3Cl)c(C(=O)NOCCO)cc21 [Selumetinib] (first compound max 10 µM, 7x7, partner max 10 µM)",0.604,0.366,0.737,0.876,0.473,0.527,0.205,0.51,0.864,0.909,0.303,0.674,0.466,0.205,0.65,0.313,0.607,0.611,0.0716
"Cn1cnc2c(F)c(Nc3ccc(Br)cc3Cl)c(C(=O)NOCCO)cc21 [Selumetinib] + CC(C)n1c(=O)n(C)c2cnc3cc(F)c(-c4ccc(OCCCN5CCCCC5)nc4)cc3c21 [AZD1390] (first compound max 10 µM, 7x7, partner max 0.3 µM)",0.211,0.238,0.368,0.606,0.238,0.379,0.138,0.136,0.51,0.702,0.132,0.499,0.122,0.108,0.562,0.241,0.184,0.346,0.0318
"COc1nnc2ccc(N3CCC(c4ccc(OCCN5CCN(C)C(=O)[C@H]5C)cc4)CC3)nn12 [AZD5153] + C[C@@H]1COCCN1C2=NC(=NC(=C2)C3(CC3)[S@](=N)(=O)C)C4=C5C=CNC5=NC=C4 [AZD6738] (first compound max 1 µM, 7x7, partner max 10 µM)",0.981,0.813,0.834,0.923,0.481,0.674,0.525,0.739,0.788,0.809,0.924,0.57,0.735,0.893,0.798,0.97,0.832,0.823,0.947
"C[C@@H](c1ccc2nccn2c1)n1nnc2ncc(-c3cnn(C)c3)nc21 [Savolitinib] + CC1(C)CCC(CN2CCN(c3ccc(C(=O)NS(=O)(=O)c4ccc(NCC5CCOCC5)c([N+](=O)[O-])c4)c(Oc4cnc5[nH]ccc5c4)c3)CC2)=C(c2ccc(Cl)cc2)C1 [Venetoclax] (first compound max 1 µM, 7x7, partner max 1 µM)",0.254,0.121,0.243,0.166,0.121,0.217,0.28,0.115,0.0879,0.181,0.0706,0.161,0.372,0.0731,0.129,0.114,0.122,0.143,0.281
"CN(C)CCCOc1ccc(-c2ccc3ncc4c(c3c2)n(C2CCOCC2)c(=O)n4C)cn1 [AZD0156] + O=C(c1cc(Cc2n[nH]c(=O)c3ccccc23)ccc1F)N1CCN(C(=O)C2CC2)CC1 [Olaparib] (first compound max 3 µM, partner max 3 µM)",0.497,0.443,0.458,0.284,0.228,0.441,0.207,0.223,0.314,0.339,0.316,0.351,0.354,0.378,0.164,0.611,0.411,0.369,0.264
"Cc1nc(-c2cn3c(n2)-c2ccc(-c4cnn(C(C)(C)C(N)=O)c4)cc2OCC3)n(C(C)C)n1 [Taselisib] + O=C(Nc1ccc2[nH]nc(-c3ccncc3)c2c1)[C@@H]1CCN(CC(=O)N2CCN(c3ccc(-c4ncccn4)cc3)CC2)C1 [SCH772984] (first compound max 10 µM, 7x7, partner max 5 µM)",0.747,,0.716,0.961,0.69,0.843,0.345,,0.954,,,0.531,0.716,,,0.697,0.871,0.816,0.154
"C=CCn1c(=O)c2cnc(Nc3ccc(N4CCN(C)CC4)cc3)nc2n1-c1cccc(C(C)(C)O)n1 [AZD1775] + CCc1c2c(nc3ccc(O)cc13)-c1cc3c(c(=O)n1C2)COC(=O)[C@]3(O)CC [SN-38] (first compound max 1 µM, partner max 0.3 µM)",0.996,,0.917,0.966,0.525,0.589,0.778,,0.594,,,0.62,0.748,,,0.997,0.943,0.843,0.849
"CS(=O)(=O)CCNCc1ccc(-c2ccc3ncnc(Nc4ccc(OCc5cccc(F)c5)c(Cl)c4)c3c2)o1 [Lapatinib] + NC1(c2ccc(-c3nc4ccn5c(=O)[nH]nc5c4cc3-c3ccccc3)cc2)CCC1 [MK-2206] (first compound max 10 µM, 7x7, partner max 10 µM)",0.873,,0.766,0.931,0.658,0.929,0.625,,0.95,0.898,,0.739,0.956,,,0.941,0.953,0.921,0.672
